How the values were obtained:
Type in all cases: cell-based
S1P4 = target: T1, S1P4 (Homo sapiens, UniProt O95977); experiment: Aequorin assay, agonist potency, S1P4; conditions: agonist mode, aequorin luminescence
T1 sequence (O95977 1-384): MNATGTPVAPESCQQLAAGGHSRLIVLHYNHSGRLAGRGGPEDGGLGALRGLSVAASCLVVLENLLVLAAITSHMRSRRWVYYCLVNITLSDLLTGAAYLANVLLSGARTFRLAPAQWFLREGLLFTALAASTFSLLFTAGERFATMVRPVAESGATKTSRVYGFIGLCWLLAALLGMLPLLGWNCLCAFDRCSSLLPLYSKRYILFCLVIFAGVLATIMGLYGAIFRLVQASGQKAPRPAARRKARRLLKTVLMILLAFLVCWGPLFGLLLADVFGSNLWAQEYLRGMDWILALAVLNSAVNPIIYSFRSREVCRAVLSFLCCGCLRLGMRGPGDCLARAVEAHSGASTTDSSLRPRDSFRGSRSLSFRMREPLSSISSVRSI
Description: (§1) Agonistic activity was measured as described below.
(§2) 18 hours prior to the test, vials of frozen cells are quickly thawed in a 37° C. water bath, cells are recovered by centrifugation and resuspended in assay buffer (DMEM/HAM's F12 with HEPES, without phenol red+0.1% fatty acid-free BSA). Cells are gently agitated in suspension overnight at RT in presence of 5 μM of Coelenterazine h (Molecular Probes). On the day of the test, cells are diluted to their final working concentrations in assay buffer and agitated in suspension for 1 h at RT. Cells are then placed in the luminescence reader (Hamamatsu Functional Drug Screening System 6000, FDSS6000). During cells incubation, compounds are prepared in 100% DMSO, and subsequently diluted in assay buffer. Compounds are then dispensed in the assay plate (black, clear-bottom, 384-well plate). After binding of agonists to the human S1P receptor the intracellular calcium concentration increases and binding of calcium to the Aequorin/Coelenterazine complex leads to an oxidation reaction of coelenterazine, which results in the production of Aequorin, coelenteramide, CO2 and light (Dmax 469 nm). The luminescent response is dependent on the agonist concentration. For agonist testing, 30 μL of cell suspension are injected on 30 μL of test compound or reference agonist in the assay plate. The resulting emission of light is recorded for 90 seconds using the FDSS6000. Dose response curves with the reference compounds are performed before testing the compounds. S1P is the reference agonist and JTE-013 the reference antagonist for S1P2.
(§3) Luminescence data are integrated over the reading interval for agonist and antagonist modes. To standardize the emission of recorded light (determination of the “100% signal”) across plates and across different experiments, some of the wells contain 100 μM digitonin or a saturating concentration of ATP (20 μM). Plates also contain the reference agonist at a concentration equivalent to the EC80 obtained during the test validation and the EC100. Dose-response data from test compounds were analyzed with XLfit (IDBS) software using nonlinear regression applied to a sigmoidal dose-response model and the following equation: […]

[1] = target: T2, human EDG1 (S1PR1) receptor (Homo sapiens, UniProt P21453); experiment: Aequorin assay, agonist potency, CHO-A21-Edg1#17 cells; conditions: agonist mode, aequorin luminescence; read-out: S1P1 EC50
T2 construct: expressed in transfected cells; host or cells: CHO-A21-Edg1#17 (CHO clone co-expressing mitochondrial aequorin and chimaeric Gaqi5)
Description: as §1
(§4) Cell clone CHO-A21-Edg1#17 carries the transgenes human EDG1 (S1PR1) receptor (Accession number NP_001391.2), mitochondrially targeted Aequorin (active part corresponds to accession number 1SL8_A) and chimaeric Gaqi5=Gaq modified with the 5 C-terminal amino-acids replaced with those of the Gai protein (DCGLF). CHO-A2-S1P3 Mix is a cell pool ectopically expressing human EDG3 (S1PR3) receptor (Accession number NP_005217.2) mitochondrially targeted Aequorin (active part has a sequence similar to accession number AY601106.1) and GNA16 (Accession number NP_002059.3). Cell clone CHO-A21-EDG8#12 carries the transgenes human EDG8 (S1PR5) receptor (Acession number NP_110387.1), mitochondrially expressed Aequorin (active part corresponds to accession number 1SL8_A) and chimaeric Gaqi5 (Gaq modified to present the 5 last amino-acids of the Gai protein “DCGLF”; see above). Cells are grown to mid-log phase in culture medium (HAM's F12, 10% FBS, 100 IU/mL penicillin, 100 μg/mL streptomycin, 250 μg/mL Zeocin, 400 μg/mL G418). 18 hours prior to frozen cells preparation, the medium is changed to remove the antibiotics.
as §2, §3

[2] = target: T3, human EDG8 (S1PR5) receptor (Homo sapiens, UniProt Q9H228); experiment: Aequorin assay, agonist potency, CHO-A21-EDG8#12 cells; conditions: agonist mode, aequorin luminescence; read-out: S1P5 EC50 range #
T3 construct: carries the transgenes human EDG8 (S1PR5) receptor (Acession number NP_110387.1); expressed in transfected cells; host or cells: CHO-A21-EDG8#12 (CHO clone co-expressing mitochondrial aequorin and chimaeric Gaqi5)
Description: as §1, §4, §2, §3

T3 sequence (Q9H228 whole entry): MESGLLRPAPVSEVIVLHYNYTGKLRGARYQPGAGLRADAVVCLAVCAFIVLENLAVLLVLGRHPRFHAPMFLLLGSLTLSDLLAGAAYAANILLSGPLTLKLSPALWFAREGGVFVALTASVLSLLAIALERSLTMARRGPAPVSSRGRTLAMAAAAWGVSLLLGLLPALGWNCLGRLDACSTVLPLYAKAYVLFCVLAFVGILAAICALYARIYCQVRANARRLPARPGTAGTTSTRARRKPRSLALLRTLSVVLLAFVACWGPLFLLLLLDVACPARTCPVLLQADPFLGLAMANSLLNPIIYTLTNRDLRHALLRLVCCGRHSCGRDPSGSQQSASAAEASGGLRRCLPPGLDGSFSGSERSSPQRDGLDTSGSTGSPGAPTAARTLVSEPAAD
T2 sequence (P21453 whole entry): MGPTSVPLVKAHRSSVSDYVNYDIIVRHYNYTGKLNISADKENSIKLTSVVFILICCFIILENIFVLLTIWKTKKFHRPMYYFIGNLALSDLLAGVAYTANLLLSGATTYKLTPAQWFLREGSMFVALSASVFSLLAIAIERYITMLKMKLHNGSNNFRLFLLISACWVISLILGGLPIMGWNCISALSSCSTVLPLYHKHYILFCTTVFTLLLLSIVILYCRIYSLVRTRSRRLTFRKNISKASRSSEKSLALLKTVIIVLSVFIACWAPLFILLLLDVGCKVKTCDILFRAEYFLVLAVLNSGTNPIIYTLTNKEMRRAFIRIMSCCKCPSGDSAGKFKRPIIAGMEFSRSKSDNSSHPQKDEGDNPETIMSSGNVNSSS

Row | EC50 (S1P4) | EC50 [1] | EC50 [2] | Structure (SMILES)
1 | < 1000 nM | > 1000 nM | 10 to 100 nM | O=C(O)CN1CC2(Cc3ccc(OCCc4ccccc4Cl)cc3C2)C1 [Example 61, 2-(5′-(2-chlorophenethoxy)-1′,3′-dihydrospiro[azetidine-3,2′-inden]-1-yl)acetic acid]
2 | < 1000 nM | > 1000 nM | 10 to 100 nM | CCc1cccc(F)c1COc1ccc2c(c1)CC1(C2)CN(CC(C)CC(=O)O)C1 (stereo not drawn) [Example 65, 4-(5′-((2-ethyl-6-fluorobenzyl)oxy)-1′,3′-dihydrospiro[azetidine-3,2′-inden]-1-yl)-3-methylbutanoic acid]
3 | < 1000 nM | > 1000 nM | ≤ 10 nM | O=C(O)CN1CC2(Cc3ccc(OC4CCc5ccccc54)cc3C2)C1 (stereo not drawn) [Example 66, 2-(5′-((2,3-dihydro-1H-inden-1-yl)oxy)-1′,3′-dihydrospiro[azetidine-3,2′-inden]-1-yl)acetic acid]
4 | < 1000 nM | > 1000 nM | ≤ 10 nM | O=C(O)CN1CC2(Cc3ccc(OC4CCc5cccc(Cl)c54)cc3C2)C1 (stereo not drawn) [Example 67, 2-(5′-((7-chloro-2,3-dihydro-1H-inden-1-yl)oxy)-1′,3′-dihydrospiro[azetidine-3,2′-inden]-1-yl)acetic acid]
5 | < 1000 nM | > 1000 nM | ≤ 10 nM | O=C(O)CN1CC2(Cc3ccc(OC4CCc5cc(Br)cc(F)c54)cc3C2)C1 (stereo not drawn) [Example 68, 2-(5′-((5-bromo-7-fluoro-2,3-dihydro-1H-inden-1-yl)oxy)-1′,3′-dihydrospiro[azetidine-3,2′-inden]-1-yl)acetic acid]
6 | < 1000 nM | > 1000 nM | ≤ 10 nM | O=C(O)CN1CC2(Cc3ccc(OC4CCc5cc(Cl)cc(Cl)c54)cc3C2)C1 (stereo not drawn) [Example 69, 2-(5′-((5,7-dichloro-2,3-dihydro-1H-inden-1-yl)oxy)-1′,3′-dihydrospiro[azetidine-3,2′-inden]-1-yl)acetic acid]
7 | < 1000 nM | > 1000 nM | 100 to 1000 nM | O=C(O)CN1CC2(Cc3ccc(OCCOc4ccccc4)cc3C2)C1 [Example 70, 2-(5′-(2-phenoxyethoxy)-1′,3′-dihydrospiro[azetidine-3,2′-inden]-1-yl)acetic acid]
8 | > 1000 nM | > 1000 nM | 1000 to 10000 nM | O=C(O)CN1CC2(Cc3ccc(OCCOc4ccc(Cl)cc4)cc3C2)C1 [Example 71, 2-(5′-(2-(4-chlorophenoxy)ethoxy)-1′,3′-dihydrospiro[azetidine-3,2′-inden]-1-yl)acetic acid]
9 | < 1000 nM | > 1000 nM | 100 to 1000 nM | O=C(O)CN1CC2(Cc3ccc(OCc4cccc5c4OCC5)cc3C2)C1 [Example 72, 2-(5′-((2,3-dihydrobenzofuran-7-yl)methoxy)-1′,3′-dihydrospiro[azetidine-3,2′-inden]-1-yl)acetic acid]
10 | < 1000 nM | > 1000 nM | 100 to 1000 nM | O=C(O)CN1CC2(Cc3ccc(OC4Cc5ccccc5C4)cc3C2)C1 [Example 73, 2-(5′-((2,3-dihydro-1H-inden-2-yl)oxy)-1′,3′-dihydrospiro[azetidine-3,2′-inden]-1-yl)acetic acid]

More lines, now with the values behind:

Row | Structure (SMILES) | EC50 (S1P4) | EC50 [1] | EC50 [2]
11 | O=C(O)C1(CN2CC3(Cc4ccc(OCc5cc(F)ccc5C(F)(F)F)cc4C3)C2)CC1 [Example 43, 1-((5′-((5-fluoro-2-(trifluoromethyl)benzyl)oxy)-1′,3′-dihydrospiro[azetidine-3,2′-inden]-1-yl)methyl)cyclopropanecarboxylic acid Compound with 2,2,2-trifluoroacetic acid (1:1)] | < 1000 nM | > 1000 nM | 1000 to 10000 nM
12 | O=C(O)C1(CN2CC3(Cc4ccc(OCc5c(Cl)cccc5C(F)(F)F)cc4C3)C2)CC1 [Example 47, 1-((5′-((2-chloro-6-(trifluoromethyl)benzyl)oxy)-1′,3′-dihydrospiro[azetidine-3,2′-inden]-1-yl)methyl)cyclopropanecarboxylic acid Compound with 2,2,2-trifluoroacetic acid (1:1)] | < 1000 nM | > 1000 nM | ≤ 10 nM
13 | CCc1cccc(F)c1COc1ccc2c(c1)CC1(C2)CN(CC2(C(=O)O)CC2)C1 [Example 48, 1-((5′-((2-ethyl-6-fluorobenzyl)oxy)-1′,3′-dihydrospiro[azetidine-3,2′-inden]-1-yl)methyl)cyclopropanecarboxylic acid] | < 1000 nM | > 1000 nM | ≤ 10 nM
14 | O=C(O)C1(CN2CC3(Cc4ccc(OCc5c(F)cccc5C(F)(F)F)cc4C3)C2)CC1 [Example 49, 1-((5′-((2-fluoro-6-(trifluoromethyl)benzyl)oxy)-1′,3′-dihydrospiro[azetidine-3,2′-inden]-1-yl)methyl)cyclopropanecarboxylic acid] | < 1000 nM | > 1000 nM | ≤ 10 nM
15 | O=C(O)C1(CN2CC3(Cc4ccc(-c5ccc(OCc6ccccc6)cc5)cc4C3)C2)CC1 [Example 53, 1-((5′-(4-(benzyloxy)phenyl)-1′,3′-dihydrospiro[azetidine-3,2′-inden]-1-yl)methyl)cyclopropanecarboxylic acid] | < 1000 nM | > 1000 nM | 100 to 1000 nM
16 | O=C(O)C1(CN2CC3(Cc4ccc(OCCc5ccccc5)cc4C3)C2)CC1 [Example 54, 1-((5′-phenethoxy-1′,3′-dihydrospiro[azetidine-3,2′-inden]-1-yl)methyl)cyclopropanecarboxylic acid] | < 1000 nM | > 1000 nM | 1000 to 10000 nM
17 | O=C(O)C1(CN2CC3(Cc4ccc(OCCc5ccc(Cl)cc5)cc4C3)C2)CC1 [Example 55, 1-((5′-(4-chlorophenethoxy)-1′,3′-dihydrospiro[azetidine-3,2′-inden]-1-yl)methyl)cyclopropanecarboxylic acid] | < 1000 nM | > 1000 nM | 1000 to 10000 nM
18 | O=C(O)C1(CN2CC3(Cc4ccc(OCCc5ccccc5C(F)(F)F)cc4C3)C2)CC1 [Example 56, 1-((5′-(2-(trifluoromethyl)phenethoxy)-1′,3′-dihydrospiro[azetidine-3,2′-inden]-1-yl)methyl)cyclopropanecarboxylic acid] | < 1000 nM | > 1000 nM | 10 to 100 nM
19 | O=C(O)C1(CN2CC3(Cc4ccc(OCCc5cccc(Cl)c5)cc4C3)C2)CC1 [Example 57, 1-((5′-(3-chlorophenethoxy)-1′,3′-dihydrospiro[azetidine-3,2′-inden]-1-yl)methyl)cyclopropanecarboxylic acid] | < 1000 nM | < 1000 nM | 100 to 1000 nM
20 | O=C(O)C1(CN2CC3(Cc4ccc(OCCc5ccccc5Cl)cc4C3)C2)CC1 [Example 58, 1-((5′-(2-chlorophenethoxy)-1′,3′-dihydrospiro[azetidine-3,2′-inden]-1-yl)methyl)cyclopropanecarboxylic acid] | < 1000 nM | > 1000 nM | 100 to 1000 nM
21 | O=C(O)CN1CC2(Cc3ccc(OCCc4ccccc4)cc3C2)C1 [Example 60, 2-(5′-phenethoxy-1′,3′-dihydrospiro[azetidine-3,2′-inden]-1-yl)acetic acid] | > 1000 nM | > 1000 nM | 1000 to 10000 nM

Source: patent US20200055817A1 (AbbVie Deutschland GmbH & Co. KG, priority 2016, published 2020)
